Source: patent US20230172936A1, “VCP/p97 INHIBITOR FOR THE TREATMENT OF CANCER” (Cleave Therapeutics, Inc., priority 2020, published 2023)
Read-outs that look alike come from different tables or passages of the source.

How the values were obtained:
p97 = p97 (Homo sapiens, UniProt P55072); experiment: P97 inhibition assay (ADP glo); type: biochemical
Experimental: The p97 assay is an assay used to determine inhibitory activity of compounds against the p97 complex. Inhibition of activity of the p97 proteosome complex can enable apoptosis and cause elimination of neoplastic cells (cancer cells). The assay follows that of Christianson in Nat. Cell Biol., (2011) 14:93. The reagents used for the p97 assay include an assay buffer which is a mixture of 50 mM TRIS pH 7.5, 20 mM MgCI˜, 0.02% TX-100, 1 mM DTT and 0.2% (v/v) glycerol. The well plate is a Corning 3674, 384w plate. The identification kit is an ADP glo kit (Promega): stop buffer, detection reagent.
The assay is conducted as follows: • Serial dilute compound in DMSO in a 1:3.33-fold 10 point serial dilution. • In each well of 384w plate add the following reagents: 0.5 μL compound serial diluted in DMSO (Final Conc. 10%) 2 μL ATP (Final Conc.=20 μM, diluted in assay buffer) 2.5 μL p97 (Final Conc.=20 nM, diluted in assay buffer). • Incubate at 37° C. for 15 min. • Add 5 μL of stop buffer, incubate at RT for 40 min. • Add 10 μL of detection reagent, incubate at RT for 30 min. • Read luminescence on Envision plate reader. […]

[1] = tested on: human A549 lung adenocarcinoma xenograft tumors; experiment: Tumor growth of A549 xenograft tumors; type: in vivo, mice; details: 18 day period
Description: (§1) Group 1 received PO 4-days on, 3-days off doses (QD4/3 off) of vehicle.

CTG-2775 = experiment: Ex-vivo cytotoxicity by Cell Titer Glo; type: cell-based; details: Homo sapiens, 144 h; CTG-2775, 6 days
Experimental: (§2) Acute myelogenous leukemia (AML) is the most common acute leukemia in adults. A hematologic cancer, the disease is highly heterogeneous, with multiple subtypes. About 30% of AML cases harbor a FLT3/ITD mutation making the disease highly proliferative and more aggressive with a high risk of relapse.
(§3) Triplicate wells with media only and duplicate wells of vehicle (0.2% DMSO) were used as negative controls. […] To measure proliferation, untreated cells at days 0 and 6 were evaluated via Cell Titer Glo.
(§4) Protocol: • 1. AML cells were thawed and resuspended in enriched media composed of StemSpan™ Serum-Free Expansion Media (SFEM), 2% heat-inactivated FBS, StemSpan™ CC110 and recombinant human IL-3. • 2. 20,000 cells/well in 100 μL volume were plated on study day 0. • 3. […] Cells were incubated in the presence of drug for 6 days. • 5. On day 6, plates were removed from the incubator and equilibrated to room temperature for 20 minutes. 100 μL/well Cell Titer Glo was added to each well and incubated for 10 minutes before plate reading. • 6. Luminescence was recorded using Tecan Infinite M Plex plate reader.

CTG-2453 = experiment: Ex-vivo cytotoxicity by Cell Titer Glo; type: cell-based; details: Homo sapiens, 144 h; CTG-2453, 6 days
Experimental: as §2, §3, §4

CTG-2704 = experiment: Ex-vivo cytotoxicity by Cell Titer Glo; type: cell-based; details: Homo sapiens, 144 h; CTG-2704, 6 days
Experimental: as §2, §3, §4

CTG-2242 = experiment: Ex-vivo cytotoxicity by Cell Titer Glo; type: cell-based; details: Homo sapiens, 144 h; CTG-2242, 6 days
Experimental: as §2, §3, §4

CTG-2233 = experiment: Ex-vivo cytotoxicity by Cell Titer Glo; type: cell-based; details: Homo sapiens, 144 h; CTG-2233, 6 days
Experimental: as §2, §3, §4

CTG-2456 = experiment: Ex-vivo cytotoxicity by Cell Titer Glo; type: cell-based; details: Homo sapiens, 144 h; CTG-2456, 6 days
Experimental: as §2, §3, §4

CTG-2238 = experiment: Ex-vivo cytotoxicity by Cell Titer Glo; type: cell-based; details: Homo sapiens, 144 h; CTG-2238, 6 days
Experimental: as §2, §3, §4

CTG-2229 = experiment: Ex-vivo cytotoxicity by Cell Titer Glo; type: cell-based; details: Homo sapiens, 144 h; CTG-2229, 6 days
Experimental: as §2, §3, §4

CTG-2702 = experiment: Ex-vivo cytotoxicity by Cell Titer Glo; type: cell-based; details: Homo sapiens, 144 h; CTG-2702, 6 days
Experimental: as §2, §3, §4

CTG-2236 = experiment: Ex-vivo cytotoxicity by Cell Titer Glo; type: cell-based; details: Homo sapiens, 144 h; CTG-2236, 6 days
Experimental: as §2, §3, §4

CTG-2228 = experiment: Ex-vivo cytotoxicity by Cell Titer Glo; type: cell-based; details: Homo sapiens, 144 h; CTG-2228, 6 days
Experimental: as §2, §3, §4

CTG-2239 = experiment: Ex-vivo cytotoxicity by Cell Titer Glo; type: cell-based; details: Homo sapiens, 144 h; CTG-2239, 6 days
Experimental: as §2, §3, §4

CTG-2701 = experiment: Ex-vivo cytotoxicity by Cell Titer Glo; type: cell-based; details: Homo sapiens, 144 h; CTG-2701, 6 days
Experimental: as §2, §3, §4

CTG-2700 = experiment: Ex-vivo cytotoxicity by Cell Titer Glo; type: cell-based; details: Homo sapiens, 144 h; CTG-2700, 6 days
Experimental: as §2, §3, §4

CTG-3439 = experiment: Ex-vivo cytotoxicity by Cell Titer Glo; type: cell-based; details: Homo sapiens, 144 h; CTG-3439, 6 days
Experimental: as §2, §3, §4

CTG-2455 = experiment: Ex-vivo cytotoxicity by Cell Titer Glo; type: cell-based; details: Homo sapiens, 144 h; CTG-2455, 6 days
Experimental: as §2, §3, §4

CTG-2452 = experiment: Ex-vivo cytotoxicity by Cell Titer Glo; type: cell-based; details: Homo sapiens, 144 h; CTG-2452, 6 days
Experimental: as §2, §3, §4

CTG-2454 = experiment: Ex-vivo cytotoxicity by Cell Titer Glo; type: cell-based; details: Homo sapiens, 144 h; CTG-2454, 6 days
Experimental: as §2, §3, §4

CTG-3438 = experiment: Ex-vivo cytotoxicity by Cell Titer Glo; type: cell-based; details: Homo sapiens, 144 h; CTG-3438, 6 days
Experimental: as §2, §3, §4

[2] = Description: as §1

Chain of p97 (P55072 whole entry): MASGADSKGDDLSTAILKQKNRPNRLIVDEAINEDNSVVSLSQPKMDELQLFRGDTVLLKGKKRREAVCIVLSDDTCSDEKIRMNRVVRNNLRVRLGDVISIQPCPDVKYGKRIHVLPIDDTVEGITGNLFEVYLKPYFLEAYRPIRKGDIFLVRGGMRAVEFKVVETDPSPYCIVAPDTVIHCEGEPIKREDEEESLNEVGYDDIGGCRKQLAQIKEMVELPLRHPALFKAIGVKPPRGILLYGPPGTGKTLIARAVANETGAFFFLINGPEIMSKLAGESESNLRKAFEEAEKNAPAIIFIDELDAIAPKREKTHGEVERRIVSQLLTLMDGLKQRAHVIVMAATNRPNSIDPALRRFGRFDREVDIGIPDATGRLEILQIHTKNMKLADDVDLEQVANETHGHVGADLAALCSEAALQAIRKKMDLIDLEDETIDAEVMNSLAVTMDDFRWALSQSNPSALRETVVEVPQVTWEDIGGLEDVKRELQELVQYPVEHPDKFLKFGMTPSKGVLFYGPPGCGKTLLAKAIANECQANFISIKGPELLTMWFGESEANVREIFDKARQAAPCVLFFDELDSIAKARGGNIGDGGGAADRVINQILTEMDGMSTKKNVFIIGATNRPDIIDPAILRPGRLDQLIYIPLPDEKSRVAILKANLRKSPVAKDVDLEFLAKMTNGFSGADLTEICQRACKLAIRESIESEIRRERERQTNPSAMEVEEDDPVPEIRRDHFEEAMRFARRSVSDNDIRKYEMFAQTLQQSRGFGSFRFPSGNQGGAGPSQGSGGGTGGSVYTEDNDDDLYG

Question: For `Cc1cc2c(C(N)=O)cccc2n1-c1nc2c(c(NCc3ccccc3)n1)CCCN2` [Compound 1, 1-(4-(Benzylamino)-5,6,7,8-tetrahydropyrido[2,3-d]pyrimidin-2-yl)-2-methyl-1H-indole-4-carboxamide], which IC50 (p97) is on record?
Answer: < 30 nM

Question: What about the TGI ([1]; 100 mg/kg QD4/3 off) of the same compound?
Answer: 61%

Question: What about the “tumor growth inhibition (TGI)” value ([1]; 150 mg/kg BIW, PO) of the same compound?
Answer: 20%

Question: And the TGI ([1]; 225 mg/kg once weekly (1/W))?
Answer: 31%

Question: What about the IC50 (CTG-2775) of the same compound?
Answer: 437 nM

Question: What about the IC50 (CTG-2453) of the same compound?
Answer: 307 nM

Question: What about the IC50 (CTG-2704) of the same compound?
Answer: 666 nM

Question: What about the IC50 (CTG-2242) of the same compound?
Answer: 501 nM

Question: And the IC50 (CTG-2233)?
Answer: 412 nM

Question: And the IC50 (CTG-2456)?
Answer: 212 nM

Question: What about the IC50 (CTG-2238) of the same compound?
Answer: 237 nM

Question: What about the IC50 (CTG-2229) of the same compound?
Answer: 752 nM

Question: What about the IC50 (CTG-2702) of the same compound?
Answer: 427 nM

Question: And the IC50 (CTG-2236)?
Answer: 527 nM

Question: And the IC50 (CTG-2228)?
Answer: 568 nM

Question: And the IC50 (CTG-2239)?
Answer: 395 nM

Question: What about the IC50 (CTG-2701) of the same compound?
Answer: 395 nM

Question: And the IC50 (CTG-2700)?
Answer: 386 nM

Question: And the IC50 (CTG-3439)?
Answer: 691 nM

Question: What about the IC50 (CTG-2455) of the same compound?
Answer: 220 nM

Question: What about the IC50 (CTG-2452) of the same compound?
Answer: 512 nM

Question: And the IC50 (CTG-2454)?
Answer: 208 nM

Question: And the IC50 (CTG-3438)?
Answer: 263 nM

Question: What about the drug-related deaths ([2]; 100 mg/kg QD4/3 off) of the same compound?
Answer: a single drug-related death

Question: And the “tolerability of dosing regimen” value ([2]; 100 mg/kg QD4/3 off)?
Answer: generally tolerated

Question: What about the “mean body weight loss” value ([2]; 100 mg/kg QD4/3 off, day 2) of the same compound?
Answer: −7.0%

Question: What about the deaths ([2]; 150 mg/kg BIW cohort) of the same compound?
Answer: No deaths

Question: What about the body weight loss ([2]; 150 mg/kg BIW, day 2) of the same compound?
Answer: −1.5%

Question: And the body weight loss ([2]; 150 mg/kg BIW, day 3)?
Answer: −3.9%

Question: What about the drug related deaths ([2]; 225 mg/kg 1/W cohort) of the same compound?
Answer: A single drug related death

Question: And the body weight loss ([2]; 225 mg/kg weekly, day 4)?
Answer: −8.1%
